Measurements reported in patent publication US8569344B2, “N-piperidinyl acetamide derivatives as calcium channel blockers” (Zalicus Pharmaceuticals Ltd., priority 2008, dated 2013).

target: T1, human α1G T-type channels (Homo sapiens, UniProt O43497); assay: T-type calcium channel block, whole cell patch clamp in HEK cells (α1G); assay type: cell-based; conditions: HEK cells, patch clamp, mainly non-inactivated protocol; values above 10 μM shown as 10 μM, below 0.30 μM shown as 0.30 μM; read-out: T-type Calcium Channel Block α1G IC50
T1 construct: expressed in transfected cells; host or cells: HEK 293
Procedure: T-type calcium channel blocking activity was assayed in human embryonic kidney cells, HEK 293, stably transfected with the T-type calcium channel subunits. Briefly, cells were cultured in Dulbecco's modified eagle medium (DMEM) supplemented with 10% fetal bovine serum, 200 U/ml penicillin and 0.2 mg/ml streptomycin at 37° C. with 5% CO2. At 85% confluency cells were split with 0.25% trypsin/1 mM EDTA and plated at 10% confluency on glass coverslips. […] Fresh DMEM was supplied and the cells transferred to 28° C./5% CO2. Cells were incubated for 1 to 2 days prior to whole cell recording.
Standard patch-clamp techniques were employed to identify blockers of T-type currents. Briefly, previously described HEK cell lines stably expressing human α1G, α1H and α1I T-type channels were used for all the recordings (passage #: 4-20, 37° C., 5% CO2). Whole cell patch clamp experiments were performed using an Axopatch 200B amplifier (Axon Instruments, Burlingame, Calif.) linked to a personal computer equipped with pCLAMP software. Data were analyzed using Clampfit (Axon Instruments) and SigmaPlot 4.0 (Jandel Scientific). To obtain T-type currents, plastic dishes containing semi-confluent cells were positioned on the stage of a ZEISS AXIOVERT S100 microscope after replacing the culture medium with external solution (see below). Whole-cell patches were obtained using pipettes (borosilicate glass with filament, O.D.: 1.5 mm, I.D.: 0.86 mm, 10 cm length), fabricated on a SUTTER P-97 puller with resistance values of ˜5 MΩ (see below for internal solution).
In the non-inactivating protocol, the holding potential is set at −110 mV and with a pre-pulse at −100 mV for 1 second prior to the test pulse at −40 mV for 50 ms.
Test compounds were dissolved in external solution, 0.1-0.01% DMSO. After ˜10 min rest, they were applied by gravity close to the cell using a WPI microfil tubing. The “non-inactivated” pre-pulse was used to examine the resting block of a compound. The “inactivated” protocol was employed to study voltage-dependent block. […] Values are shown in μM and values above 10 μM are simply represented as 10 μM.

T1 sequence (O43497 whole entry): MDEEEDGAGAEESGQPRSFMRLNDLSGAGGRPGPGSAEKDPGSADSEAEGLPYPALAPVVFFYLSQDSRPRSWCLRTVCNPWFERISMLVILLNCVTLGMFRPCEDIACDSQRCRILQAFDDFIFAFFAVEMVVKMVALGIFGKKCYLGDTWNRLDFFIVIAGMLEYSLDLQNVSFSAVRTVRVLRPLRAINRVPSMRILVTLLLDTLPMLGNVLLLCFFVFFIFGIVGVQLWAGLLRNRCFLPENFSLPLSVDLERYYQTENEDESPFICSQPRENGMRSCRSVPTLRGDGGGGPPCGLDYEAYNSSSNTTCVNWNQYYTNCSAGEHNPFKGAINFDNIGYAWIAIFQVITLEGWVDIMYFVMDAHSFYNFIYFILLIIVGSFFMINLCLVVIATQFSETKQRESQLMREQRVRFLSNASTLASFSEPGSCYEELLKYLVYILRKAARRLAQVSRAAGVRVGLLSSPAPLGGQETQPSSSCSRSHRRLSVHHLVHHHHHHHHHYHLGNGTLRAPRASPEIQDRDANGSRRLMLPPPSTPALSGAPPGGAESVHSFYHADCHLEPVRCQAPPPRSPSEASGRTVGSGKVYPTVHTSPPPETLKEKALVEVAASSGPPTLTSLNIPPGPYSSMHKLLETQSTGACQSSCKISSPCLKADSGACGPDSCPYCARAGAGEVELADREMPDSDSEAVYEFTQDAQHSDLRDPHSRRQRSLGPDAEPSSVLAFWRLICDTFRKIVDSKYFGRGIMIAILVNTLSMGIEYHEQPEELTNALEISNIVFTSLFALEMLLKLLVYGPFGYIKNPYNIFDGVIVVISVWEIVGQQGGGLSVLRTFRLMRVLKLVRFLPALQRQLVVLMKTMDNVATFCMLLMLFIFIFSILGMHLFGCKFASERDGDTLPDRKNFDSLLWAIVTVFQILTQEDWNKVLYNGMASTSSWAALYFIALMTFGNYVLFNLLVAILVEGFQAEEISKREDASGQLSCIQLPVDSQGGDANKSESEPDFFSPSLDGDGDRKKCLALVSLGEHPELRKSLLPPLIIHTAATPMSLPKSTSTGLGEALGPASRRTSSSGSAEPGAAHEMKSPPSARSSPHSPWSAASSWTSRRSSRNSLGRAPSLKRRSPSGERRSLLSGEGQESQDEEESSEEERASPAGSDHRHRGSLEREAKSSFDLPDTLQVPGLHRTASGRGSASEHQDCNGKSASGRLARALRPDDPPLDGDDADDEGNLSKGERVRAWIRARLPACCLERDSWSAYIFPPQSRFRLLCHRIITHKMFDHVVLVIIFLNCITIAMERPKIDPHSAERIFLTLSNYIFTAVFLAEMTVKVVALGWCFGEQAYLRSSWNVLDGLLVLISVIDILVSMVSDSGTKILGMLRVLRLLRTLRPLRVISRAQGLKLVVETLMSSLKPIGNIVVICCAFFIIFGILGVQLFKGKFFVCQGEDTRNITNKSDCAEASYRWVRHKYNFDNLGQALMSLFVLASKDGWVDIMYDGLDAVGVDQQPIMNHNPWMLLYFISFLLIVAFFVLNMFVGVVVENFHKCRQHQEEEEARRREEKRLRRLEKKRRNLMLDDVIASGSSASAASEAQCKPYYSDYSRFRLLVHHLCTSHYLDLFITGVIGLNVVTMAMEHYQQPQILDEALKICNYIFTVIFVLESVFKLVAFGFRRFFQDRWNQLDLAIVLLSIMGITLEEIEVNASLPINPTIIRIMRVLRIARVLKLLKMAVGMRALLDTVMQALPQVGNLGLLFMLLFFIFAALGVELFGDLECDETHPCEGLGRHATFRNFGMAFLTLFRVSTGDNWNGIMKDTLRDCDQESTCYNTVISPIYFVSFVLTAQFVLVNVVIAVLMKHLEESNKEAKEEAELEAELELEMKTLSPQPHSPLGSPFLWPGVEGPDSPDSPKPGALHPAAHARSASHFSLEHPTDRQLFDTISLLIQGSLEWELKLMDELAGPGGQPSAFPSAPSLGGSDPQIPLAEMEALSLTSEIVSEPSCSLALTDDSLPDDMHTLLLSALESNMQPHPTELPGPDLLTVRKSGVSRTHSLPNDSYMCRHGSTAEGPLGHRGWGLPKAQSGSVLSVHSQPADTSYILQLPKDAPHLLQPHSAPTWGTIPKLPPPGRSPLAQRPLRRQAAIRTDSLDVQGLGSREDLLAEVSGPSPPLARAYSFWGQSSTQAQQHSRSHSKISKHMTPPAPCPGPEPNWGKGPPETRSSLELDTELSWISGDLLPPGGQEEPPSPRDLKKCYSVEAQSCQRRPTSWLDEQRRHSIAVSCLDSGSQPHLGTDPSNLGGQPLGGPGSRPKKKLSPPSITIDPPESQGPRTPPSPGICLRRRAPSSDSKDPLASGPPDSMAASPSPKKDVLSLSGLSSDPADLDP

For `Cc1cc(C)cc(C(=O)NCC2CCN(CCNC(=O)C3CCCC3)CC2)c1` [Compound 392, N-((1-(2-(cyclopentanecarboxamido)ethyl)piperidin-4-yl)methyl)-3,5-dimethyl-benzamide], which IC50 is on record?
Its IC50 is 2.01 µM.

For `Cc1cc(F)cc(C(=O)NCC2CCN(CCNC(=O)C3CCCC3)CC2)c1` [Compound 393, N-((1-(2-(cyclopentanecarboxamido)ethyl)piperidin-4-yl)methyl)-3-fluoro-5-methylbenzamide], which IC50 is on record?
Its IC50 is 6.04 µM.

For `O=C(NCC1CCN(CCNC(=O)C2CCCC2)CC1)c1cccc(Cl)c1` [Compound 394, 3-chloro-N-((1-(2-(cyclopentanecarboxamido)ethyl)piperidin-4-yl)methyl)benzamide], which IC50 is on record?
The IC50 was 4.61 µM.

How did the IC50 turn out when `O=C(NCC1CCN(CCNC(=O)C2CCCC2)CC1)c1cc(F)cc(F)c1` [Compound 395, N-((1-(2-(cyclopentanecarboxamido)ethyl)piperidin-4-yl)methyl)-3,5-difluoro-benzamide] was run?
Its IC50 is over 10 µM.

For `COc1cc(F)cc(C(=O)NCC2CCN(CCNC(=O)C3CCCC3)CC2)c1` [Compound 396, N-((1-(2-(cyclopentanecarboxamido)ethyl)piperidin-4-yl)methyl)-3-fluoro-5-methoxybenzamide], which IC50 is on record?
The IC50 was 2.91 µM.

For `O=C(NCC1CCN(CCNC(=O)C2CCCC2)CC1)c1cc(F)cc(Cl)c1` [Compound 397, 3-chloro-N-((1-(2-(cyclopentanecarboxamido)ethyl)piperidin-4-yl)methyl)-5-fluoro-benzamide], which IC50 is on record?
The IC50 was 1.78 µM.

`O=C(NCC1CCN(CCNC(=O)C2CCCC2)CC1)c1cccc(C(F)(F)F)c1` [Compound 398, N-((1-(2-(cyclopentanecarboxamido)ethyl)piperidin-4-yl)methyl)-3-(trifluoromethyl)benzamide] was tested. Which IC50 did it give?
The IC50 was 3.53 µM.

`O=C(NCC1CCN(CCNC(=O)C2CCCC2)CC1)c1cccc(Br)c1` [Compound 400, 3-bromo-N-((1-(2-(cyclopentanecarboxamido)ethyl)piperidin-4-yl)methyl)benzamide] was tested. Which IC50 did it give?
Its IC50 is 1.5 µM.

Which IC50 does the source give for `O=C(NCC1CCN(CCNC(=O)C2CCCC2)CC1)c1cccc(OC(F)(F)F)c1` [Compound 401, N-((1-(2-(cyclopentanecarboxamido)ethyl)piperidin-4-yl)methyl)-3-(trifluoromethoxy)benzamide] here?
The IC50 was 0.91 µM.

Which IC50 does the source give for `O=C(NCC1CCN(CCNC(=O)C2CCCC2)CC1)c1cc(F)cc(C(F)(F)F)c1` [Compound 402, N-((1-(2-(cyclopentanecarboxamido)ethyl)piperidin-4-yl)methyl)-3-fluoro-5-(trifluoromethyl)benzamide] here?
Its IC50 is 0.54 µM.

`CCOc1cc(OCC)cc(C(=O)NCC2CCN(CCNC(=O)C3CCCC3)CC2)c1` [Compound 403, N-((1-(2-(cyclopentanecarboxamido)ethyl)piperidin-4-yl)methyl)-3,5-diethoxybenzamide] was tested. Which IC50 did it give?
The IC50 was 1.11 µM.

`COc1cc(C(=O)NCC2CCN(CCNC(=O)C3CCCC3)CC2)cc(C(F)(F)F)c1` [Compound 404, N-((1-(2-(cyclopentanecarboxamido)ethyl)piperidin-4-yl)methyl)-3-methoxy-5-(trifluoromethyl)benzamide] was tested. Which IC50 did it give?
The IC50 was 0.38 µM.

With `O=C(NCC1CCN(CCNC(=O)C2CCCC2)CC1)c1cc(Cl)cc(C(F)(F)F)c1` [Compound 405, 3-chloro-N-((1-(2-(cyclopentanecarboxamido)ethyl)piperidin-4-yl)methyl)-5-(trifluoromethyl)benzamide] as the compound, how does the IC50 read?
The IC50 was under 0.3 µM.

With `O=C(NCC1CCN(CCNC(=O)C2CCCC2)CC1)c1cc(Cl)cc(Br)c1` [Compound 406, 3-bromo-5-chloro-N-((1-(2-(cyclopentanecarboxamido)ethyl)piperidin-4-yl)methyl)benzamide] as the compound, how does the IC50 read?
The IC50 was under 0.3 µM.

Which IC50 does the source give for `O=C(NCC1CCN(CCNC(=O)C2CCCC2)CC1)c1cc(Br)cc(C(F)(F)F)c1` [Compound 407, 3-bromo-N-((1-(2-(cyclopentanecarboxamido)ethyl)piperidin-4-yl)methyl)-5-(trifluoromethyl)benzamide] here?
The IC50 was under 0.3 µM.

For `O=C(Cc1cc(C(F)(F)F)cc(C(F)(F)F)c1)NCC1CCN(CCNC(=O)C2CCCC2)CC1` [Compound 408, N-(2-(4-((2-(3,5-bis(trifluoromethyl)phenyl)acetamido)methyl)piperidin-1-yl)ethyl)cyclopentanecarboxamide], which IC50 is on record?
Its IC50 is 3.36 µM.

How did the IC50 turn out when `O=C(NCC1CCN(CCNC(=O)C2CCCC2)CC1)c1cc(Br)cc(Br)c1` [Compound 409, 3,5-dibromo-N-((1-(2-(cyclopentanecarboxamido)ethyl)piperidin-4-yl)methyl)benzamide] was run?
The IC50 was under 0.3 µM.

Which IC50 does the source give for `CC(C)(C)NC(=O)N1CCC[C@H]1CN1CCC(CNC(=O)c2cc(F)cc(C(F)(F)F)c2)CC1` [Compound 410, (S)-N-tert-butyl-2-((4-((3-fluoro-5-(trifluoromethyl)benzamido)methyl)piperidin-1-yl)methyl)pyrrolidine-1-carboxamide] here?
Its IC50 is 1.15 µM.

How did the IC50 turn out when `CN(CC1CCN(CCNC(=O)NC(C)(C)C)CC1)C(=O)c1cc(F)cc(C(F)(F)F)c1` [Compound 411, N-((1-(2-(3-tert-butylureido)ethyl)piperidin-4-yl)methyl)-3-fluoro-N-methyl-5-(trifluoromethyl)benzamide] was run?
The IC50 was over 10 µM.

How did the IC50 turn out when `CN(CC1CCN(CCNC(=O)C(C)(C)C)CC1)C(=O)c1cc(F)cc(C(F)(F)F)c1` [Compound 412, 3-fluoro-N-methyl-N-((1-(2-pivalamidoethyl)piperidin-4-yl)methyl)-5-(trifluoromethyl)benzamide] was run?
The IC50 was over 10 µM.

For `CN(CC1CCN(CCNC(=O)CC(C)(C)C)CC1)C(=O)c1cc(F)cc(C(F)(F)F)c1` [Compound 413, N-((1-(2-(3,3-dimethylbutanamido)ethyl)piperidin-4-yl)methyl)-3-fluoro-N-methyl-5-(trifluoromethyl)benzamide], which IC50 is on record?
The IC50 was over 10 µM.

With `CS(=O)(=O)N1CCC[C@H]1CN1CCC(CNC(=O)c2cc(F)cc(C(F)(F)F)c2)CC1` [Compound 416, (S)-3-fluoro-N-((1-((1-(methylsulfonyl)pyrrolidin-2-yl)methyl)piperidin-4-yl)methyl)-5-(trifluoromethyl)benzamide] as the compound, how does the IC50 read?
Its IC50 is over 10 µM.

How did the IC50 turn out when `CCS(=O)(=O)N1CCC[C@H]1CN1CCC(CNC(=O)c2cc(F)cc(C(F)(F)F)c2)CC1` [Compound 417] was run?
The IC50 was 9.49 µM.

With `O=C(NCC1CCN(C[C@@H]2CCCN2S(=O)(=O)C2CC2)CC1)c1cc(F)cc(C(F)(F)F)c1` [Compound 418, (S)-N-((1-((1-(cyclopropylsulfonyl)pyrrolidin-2-yl)methyl)piperidin-4-yl)methyl)-3-fluoro-5-(trifluoromethyl) benzamide] as the compound, how does the IC50 read?
Its IC50 is 2.17 µM.

`O=C(NCC1CCN(C[C@@H]2CCCN2S(=O)(=O)C2CCC2)CC1)c1cc(F)cc(C(F)(F)F)c1` [Compound 419, (S)-N-((1-((1-(cyclobutylsulfonyl)pyrrolidin-2-yl)methyl)piperidin-4-yl)methyl)-3-fluoro-5-(trifluoromethyl)benzamide] was tested. Which IC50 did it give?
The IC50 was 1.63 µM.

How did the IC50 turn out when `O=C(NCC1CCN(C[C@@H]2CCCN2S(=O)(=O)C2CCCC2)CC1)c1cc(F)cc(C(F)(F)F)c1` [Compound 420, (S)-N-((1-((1-(cyclopentylsulfonyl)pyrrolidin-2-yl)methyl)piperidin-4-yl)methyl)-3-fluoro-5-(trifluoromethyl)benzamide] was run?
Its IC50 is 0.7 µM.

`O=C(NCC1CCN(C[C@@H]2CCCN2S(=O)(=O)CC2CC2)CC1)c1cc(F)cc(C(F)(F)F)c1` [Compound 421, (S)-N-((1-((1-(cyclopropylmethylsulfonyl)pyrrolidin-2-yl)methyl)piperidin-4-yl)methyl)-3-fluoro-5-(trifluoromethyl)benzamide] was tested. Which IC50 did it give?
Its IC50 is 4.04 µM.
